Test results as given in patent US20110136728A1, “METHODS OF INCREASING BONE FORMATION USING LEPTIN-RELATED PEPTIDES” (priority 2009, published 2011).
Entries after “also recorded” stand apart in the source; their conditions may differ. Non-standard residues stand in square brackets, D forms with d. Residues, ends and D or L forms follow the SMILES beside them.

Tests used:
[1] = test system: calorie restricted male C57BL/6J wild type mice; assay: Oral delivery (gavage) in calorie restricted (40%) wild type mice: body weight, serum glucose, serum osteocalcin; format: in vivo, mouse
Experimental: (§1) Six week-old male C57BL/6J wild type and ob/ob mice were obtained from Jackson Laboratories (Bar Harbor, Me., USA). The animals were housed individually polycarbonate cages fitted with stainless steel wire lids and air filters, and supported on ventilated racks (Thoren Caging Systems, Hazelton, Pa., USA) in the Albany Medical College Animal Resources Facility. The mice were maintained at a constant temperature (24° C.) with lights on from 07:00 to 19:00, and allowed food and water ad libitum for 6 days following arrival. During the test period, mice were fed ad libitum or calorie restricted to 60% of normal. Water intake was allowed ad libitum.
(§2) On day 1 of the study, and on each day thereafter, a water bottle containing 200 ml of water was added to each cage between 09:00 and 10:00 h. Mice fed ad libitum were given 200 g of pelleted rodent diet (Prolab Rat, Mouse, Hamster 3000, St. Louis, Mo.; 22% crude protein, 5% crude fat, 5% fiber, 6% ash, 2.5% additional minerals) between 09:00 and 10:00 h each day. The mice were weighed once daily between 09:00 and 10:00 h on an Acculab V-333 electronic balance (Cole-Parmer, Vernon Hills, Ill., USA). Calorie-restricted wild type and ob/ob mice received 60% of normal daily intake. Twenty four hours later, food and water remaining in the cages was measured to the nearest 0.1 g and 0.1 ml, respectively. To assure fasting glucose levels on days in which blood glucose was measured, food was removed from the cages between 09:00 and 10:00 h, and replaced immediately before the beginning of the dark cycle.
(§3) Mouse [D-Leu-4]OB3 was prepared commercially as a C-terminal amide by Bachem (Torrance, Calif., USA). The peptide was dissolved in 0.3% Intravail A3® (Aegis Therapeutics, San Diego, Calif. USA) reconstituted in water, and administered by gavage once daily for 10 days at a concentration of 1 mg/200 μl immediately before the start of the dark cycle. Is has previously been shown that this is the optimum concentration of mouse [D-Leu-4]-OB3 and its related bioactive peptide amides, for regulating energy expenditure, glucose levels, and insulin sensitivity in two genetically obese mouse models (see Rozhayskaya-Arena M. et al., Endocrinology 141:2501-2517 (2000); Grasso P. et al. Regulatory Pep. 101:123-129 (2001); Grasso P. et al., Diabetes 48:2204-2209 (1999), Grasso P. et al., Endocrinology 138:1413-1418 (1997); Grasso P. et al., Regulatory Peptides 85:93-100 (1999); and Grasso P. et al., Diabetes 48:2204-2209 (1999)). Vehicle injected control mice received 200 ul of Intravail A3® only.
(§4) Initial blood samples were drawn by snipping the end of the tail of each mouse at the beginning of the study (day 0); subsequent samples were obtained by gently removing the scab. Blood was taken 1 h before the onset of the dark period at the beginning of the study, and after 2, 4, 6, 8, and 10 days of treatment. The blood was applied to a test strip, and glucose levels were measured with a Glucometer Elite glucose meter (Bayer, Elkhart, Ind., USA).
(§5) At the end of the study, the mice were anesthetized with isoflurane (5%) and exsanguinated by cardiac puncture. Euthanasia was confirmed by cervical dislocation. The blood was collected in sterile nonheparinized plastic centrifuge tubes and allowed to stand at room temperature for 1 h. The clotted blood was rimmed from the walls of the tubes with sterile wooden applicator sticks. Individual serum samples were prepared by centrifugation for 30 min at 2600×g in an Eppendorf 5702R, A-4-38 rotor (Eppendorf North America, Westbury, N.Y., USA). The serum samples in each experimental group (n=6) were pooled and stored frozen until assayed for osteocalcin content.
(§6) Serum osteocalcin in the pooled samples was assayed in triplicate with a mouse osteocalcin ELISA kit obtained from Biomedical Technologies, Inc. (Stoughton, Mass., USA) according to the instructions supplied by the manufacturer. […]

[2] = test system: calorie restricted male C57BL/6J ob/ob mice; assay: Oral delivery (gavage) in calorie restricted (40%) ob/ob mice: body weight, serum glucose, serum osteocalcin; format: in vivo, mouse
Experimental: as §1, §2, §3, §4, §5, §6

[3] = Observation of toxic side effects in treated animals; format: in vivo; details: treated mice or rats
[4] = 1 mg/day, 10 days, gavage in Intravail
[5] = after 10 days, 1 mg/day gavage in Intravail
[6] = day 0, 1 mg/day, 10 days, gavage in Intravail

Which “Body weight (% of initial)” value [1, 4] does the source give for `CC(C)C[C@@H](NC(=O)[C@H](CO)NC(=O)[C@H](CS)NC(=O)[C@@H](N)CO)C(=O)N1CCC[C@H]1C(=O)N[C@@H](CCC(N)=O)C(=O)N[C@H](C(N)=O)[C@@H](C)O` [mouse [D-Leu-4]-OB3] (H-SCS[dL]PQT-NH2; N-terminus assumed) here?
The value was 90.0 ± 0.8 % of initial.

And the Final body weight [1, 4]?
Its Final body weight is 20.3 ± 0.7 g.

What about the Serum osteocalcin [1, 4] of the same molecule?
Its Serum osteocalcin is 216.6 ± 0.4 ng/mL.

What about the “serum osteocalcin, effect on decrease caused by calorie restriction” value ([1]; 10 days gavage) of the same molecule?
The value was “prevented this decrease; also recorded: significantly (P<0.001) elevated serum osteocalcin levels to levels Seen in Intravail® treated wild type mice fed ad libitum”.

What about the “weight loss compared to calorie restriction with Intravail alone (words)” value ([1]; 10 days gavage) of the same molecule?
The value was “did not enhance this weight loss”.

And the “weight loss compared to calorie restriction with Intravail alone (words)” value ([1]; 10 days gavage, listed as mouse [D-leu-4]-OB3)?
The value was “essentially the same”.

What about the Final serum glucose [1, 5] of the same molecule?
The Final serum glucose was 134.8 ± 14.8 mg/dL.

And the Initial serum glucose ([1]; day 0)?
Its Initial serum glucose is 186.7 ± 36.7 mg/dL.

What about the Initial body weight [1, 6] of the same molecule?
The Initial body weight was 22.6 ± 0.8 g.

And the “Body weight (% of initial)” value [2, 4]?
The value was 90.0 ± 0.8 % of initial.

What about the Final body weight [2, 4] of the same molecule?
Its Final body weight is 30.8 ± 0.6 g.

And the Serum osteocalcin [2, 4]?
The Serum osteocalcin was 290.1 ± 3.2 ng/mL.

What about the “serum glucose compared to calorie restriction alone” value ([2]; 10 days gavage) of the same molecule?
Its value is “normalized levels; also recorded: significantly (P<0.001) reduced serum glucose levels to levels Seen in wild type mice allowed food ad libitum”.

And the “serum osteocalcin, effect on decrease caused by calorie restriction” value ([2]; 10 days gavage)?
Its value is “significantly elevated serum osteocalcin levels; also recorded: prevented this decrease”.

What about the “weight loss compared to calorie restriction with Intravail alone (words)” value ([2]; 10 days gavage) of the same molecule?
The value was “did not enhance this weight loss; also recorded: essentially the same”.

And the “elevation of serum osteocalcin” value ([2]; after 10 days of treatment)?
Its value is 93.4%.

What about the Final serum glucose [2, 5] of the same molecule?
The Final serum glucose was 176.5 ± 32.8 mg/dL.

What about the Initial serum glucose ([2]; day 0) of the same molecule?
The Initial serum glucose was 480.2 ± 36.7 mg/dL.

What about the Initial body weight [2, 6] of the same molecule?
The Initial body weight was 34.2 ± 0.4 g.

What about the “toxic side effects (words)” value [3] of the same molecule?
Its value is “lack of toxicity”.

What about the “toxic side effects (words)” value ([3]; listed as [D-Leu-4]-OB3) of the same molecule?
The value was “no obvious toxic side effects have ever been observed”.
